Source: patent publication US12139520B2 (priority 2020, dated 2024)
Bridge positions count the residues as written; N and C are the ends. Square brackets hold non-standard residues; d marks the D form. Peptide text beside a SMILES is read from it. Hyp = O=C(O)[C@@H]1C[C@@H](O)CN1

Assays:
[1] = Physical stability of peptide analogues (Thioflavin T fibrillation); format: physicochemical; conditions: maximum ThT signal normalized between hAMY maximum and buffer background; 40° C., shaking, four days; pH 7 per table title
Procedure, shortened: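 ThT fluorescence (450 nm excitation, 480 nm emission; 4 μM dye) was read every 10 min over four days at 40° C under 700 rpm shaking stress, after 1 h in pH 4 acetate or pH 7 phosphate (50 mM). Peak smoothed signal expressed as percent, scaled between buffer background and hAMY maximum.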

hAMY3 receptor = target: T1, hAMY3 receptor (Homo sapiens, UniProt O60896+P30988); assay: cAMP assay for in vitro receptor activation, hAMY3-R; format: cell-based; conditions: cAMP assay, hAMY3 receptor; read-out: hAMY3R EC50
T1 sequence (P30988 25-474): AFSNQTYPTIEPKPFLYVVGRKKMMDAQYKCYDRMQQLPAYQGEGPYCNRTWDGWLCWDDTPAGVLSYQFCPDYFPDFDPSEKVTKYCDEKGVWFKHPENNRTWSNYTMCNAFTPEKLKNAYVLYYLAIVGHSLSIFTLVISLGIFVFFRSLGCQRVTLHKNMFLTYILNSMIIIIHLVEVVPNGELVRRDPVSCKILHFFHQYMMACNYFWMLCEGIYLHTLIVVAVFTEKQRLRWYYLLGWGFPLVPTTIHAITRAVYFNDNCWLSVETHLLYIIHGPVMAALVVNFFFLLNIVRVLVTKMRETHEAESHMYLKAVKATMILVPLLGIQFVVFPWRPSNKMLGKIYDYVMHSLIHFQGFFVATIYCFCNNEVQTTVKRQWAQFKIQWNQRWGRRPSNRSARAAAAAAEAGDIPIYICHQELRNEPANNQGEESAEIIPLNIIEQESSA
T1 sequence (O60896 24-148 partner): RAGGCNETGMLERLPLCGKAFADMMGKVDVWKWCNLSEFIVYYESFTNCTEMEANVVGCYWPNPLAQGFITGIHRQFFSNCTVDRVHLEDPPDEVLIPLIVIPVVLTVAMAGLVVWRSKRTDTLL
Procedure, shortened: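 Graded compound concentrations were applied for 30 min at room temperature to stably hAMY3-expressing cells in DPBS, 0.05% casein, 0.5 mM IBMX; cAMP detected by TR-FRET.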

## CC[C@H](C)[C@H](NC(=O)[C@H](CCC(N)=O)NC(=O)[C@H](Cc1c[nH]cn1)NC(=O)[C@H](C)NC(=O)[C@H](CC(C)C)NC(=O)[C@H](CCCNC(=N)N)NC(=O)[C@H](CCC(N)=O)NC(=O)[C@@H](NC(=O)[C@@H](NC(=O)[C@@H]1CSSC[C@H](NC(=O)CN)C(=O)N[C@@H](CCCNC(=N)N)C(=O)N[C@@H]([C@@H](C)O)C(=O)NCC(=O)N[C@@H]([C@@H](C)O)C(=O)N1)[C@@H](C)O)C(C)C)C(=O)N[C@@H](Cc1ccc(O)cc1)C(=O)N[C@@H](CCC(N)=O)C(=O)N[C@@H](Cc1ccccc1)C(=O)N[C@H](C(=O)N[C@@H](CC(=O)O)C(=O)N[C@@H](CCCCN)C(=O)N[C@@H](CC(=O)O)C(=O)N[C@@H](CCCCN)C(=O)N[C@@H](CC(=O)O)C(=O)N[C@@H](CC(N)=O)C(=O)N[C@H](C(=O)N[C@@H](C)C(=O)N1CCC[C@H]1C(=O)N[C@@H](CCCNC(=N)N)C(=O)N[C@H](C(=O)N[C@@H](CCCCN)C(=O)N[C@H](C(=O)NCC(=O)N1CCC[C@H]1C(=O)N[C@@H](CCC(N)=O)C(=O)NCC(=O)N1C[C@H](O)C[C@H]1C(N)=O)C(C)C)[C@@H](C)O)C(C)C)[C@@H](C)O [compound 143] (H-GCRTGTCTVQRLAHQIYQFTDKDKDNVAPRTKVGPQG[Hyp]-NH2; disulfide 2-7; N-terminus assumed)
[1]
  Max ThT signal (%): 2.200%
hAMY3 receptor
  EC50: 0.038 nM

## CC[C@H](C)[C@H](NC(=O)[C@H](CCC(N)=O)NC(=O)[C@H](Cc1c[nH]cn1)NC(=O)[C@H](C)NC(=O)[C@H](CC(C)C)NC(=O)[C@H](CCCNC(=N)N)NC(=O)[C@H](CCC(N)=O)NC(=O)[C@@H](NC(=O)[C@@H](NC(=O)[C@@H]1CSSC[C@H](NC(=O)CN)C(=O)N[C@@H](CCCNC(=N)N)C(=O)N[C@@H](Cc2ccccc2)C(=O)NCC(=O)N[C@@H]([C@@H](C)O)C(=O)N1)[C@@H](C)O)C(C)C)C(=O)N[C@@H](Cc1ccc(O)cc1)C(=O)N[C@@H](CCC(N)=O)C(=O)N[C@@H](Cc1ccccc1)C(=O)N[C@H](C(=O)N[C@@H](CC(=O)O)C(=O)N[C@@H](CCCCN)C(=O)N[C@@H](CC(=O)O)C(=O)N[C@@H](CCCCN)C(=O)N[C@@H](CC(=O)O)C(=O)N[C@@H](CC(N)=O)C(=O)N[C@H](C(=O)N[C@@H](C)C(=O)N1CCC[C@H]1C(=O)N[C@@H](CCCNC(=N)N)C(=O)N[C@H](C(=O)N[C@@H](CCCCN)C(=O)N[C@H](C(=O)N[C@@H](CO)C(=O)N1CCC[C@H]1C(=O)N[C@@H](CCC(N)=O)C(=O)NCC(=O)N1C[C@H](O)C[C@H]1C(N)=O)[C@@H](C)CC)[C@@H](C)O)C(C)C)[C@@H](C)O [compound 146] (H-GCRFGTCTVQRLAHQIYQFTDKDKDNVAPRTKISPQG[Hyp]-NH2; disulfide 2-7; N-terminus assumed)
[1]
  Max ThT signal (%): 3.600%
hAMY3 receptor
  EC50: 0.04 nM

## CC[C@H](C)[C@H](NC(=O)[C@H](CCC(N)=O)NC(=O)[C@H](Cc1c[nH]cn1)NC(=O)[C@H](C)NC(=O)[C@H](CC(C)C)NC(=O)[C@H](CCCNC(=N)N)NC(=O)[C@H](CCC(N)=O)NC(=O)[C@@H](NC(=O)[C@@H](NC(=O)[C@@H]1CSSC[C@H](NC(=O)CN)C(=O)N[C@@H](CCCNC(=N)N)C(=O)N[C@@H](Cc2ccccc2)C(=O)NCC(=O)N[C@@H]([C@@H](C)O)C(=O)N1)[C@@H](C)O)C(C)C)C(=O)N[C@@H](Cc1ccc(O)cc1)C(=O)N[C@@H](CCC(N)=O)C(=O)N[C@@H](Cc1ccccc1)C(=O)N[C@H](C(=O)N[C@@H](CC(=O)O)C(=O)N[C@@H](CCCCN)C(=O)N[C@@H](CC(=O)O)C(=O)N[C@@H](CCCCN)C(=O)N[C@@H](CC(=O)O)C(=O)N[C@@H](CC(N)=O)C(=O)N[C@H](C(=O)N[C@@H](C)C(=O)N1CCC[C@H]1C(=O)N[C@@H](CCCNC(=N)N)C(=O)N[C@H](C(=O)N[C@@H](CCCCN)C(=O)N[C@H](C(=O)N[C@@H](CO)C(=O)N1CCC[C@H]1C(=O)N[C@@H](CC(N)=O)C(=O)NCC(=O)N1C[C@H](O)C[C@H]1C(N)=O)C(C)C)[C@@H](C)O)C(C)C)[C@@H](C)O [compound 134] (H-GCRFGTCTVQRLAHQIYQFTDKDKDNVAPRTKVSPNG[Hyp]-NH2; disulfide 2-7; N-terminus assumed)
[1]
  Max ThT signal (%): 17.400%
hAMY3 receptor
  EC50: 0.032 nM

## CC[C@H](C)[C@H](NC(=O)[C@H](CCC(N)=O)NC(=O)[C@H](Cc1c[nH]cn1)NC(=O)[C@H](C)NC(=O)[C@H](CC(C)C)NC(=O)[C@H](CCCNC(=N)N)NC(=O)[C@H](CCC(N)=O)NC(=O)[C@@H](NC(=O)[C@@H](NC(=O)[C@@H]1CSSC[C@H](NC(=O)CN)C(=O)N[C@@H](CCCNC(=N)N)C(=O)N[C@@H]([C@@H](C)O)C(=O)NCC(=O)N[C@@H]([C@@H](C)O)C(=O)N1)[C@@H](C)O)C(C)C)C(=O)N[C@@H](Cc1ccc(O)cc1)C(=O)N[C@@H](CCC(N)=O)C(=O)N[C@@H](Cc1ccccc1)C(=O)N[C@H](C(=O)N[C@@H](CC(=O)O)C(=O)N[C@@H](CCCCN)C(=O)N[C@@H](CC(=O)O)C(=O)N[C@@H](CCCCN)C(=O)N[C@@H](CC(=O)O)C(=O)N[C@@H](CC(N)=O)C(=O)N[C@H](C(=O)N[C@@H](C)C(=O)N1CCC[C@H]1C(=O)N[C@@H](CCCNC(=N)N)C(=O)N[C@H](C(=O)N[C@@H](CC(N)=O)C(=O)N[C@H](C(=O)NCC(=O)N1CCC[C@H]1C(=O)N[C@@H](CCC(N)=O)C(=O)NCC(=O)N[C@@H](Cc1ccc(O)cc1)C(N)=O)C(C)C)[C@@H](C)O)C(C)C)[C@@H](C)O [compound 109] (H-GCRTGTCTVQRLAHQIYQFTDKDKDNVAPRTNVGPQGY-NH2; disulfide 2-7; N-terminus assumed)
[1]
  Max ThT signal (%): 9.300%
hAMY3 receptor
  EC50: 0.02 nM

## CC[C@H](C)[C@@H]1NC(=O)[C@H](CCCNC(=N)N)NC(=O)[C@@H](NC(=O)CN)CSSC[C@@H](C(=O)N[C@H](C(=O)N[C@H](C(=O)N[C@@H](CCC(N)=O)C(=O)N[C@@H](CCCNC(=N)N)C(=O)N[C@@H](CC(C)C)C(=O)N[C@@H](C)C(=O)N[C@@H](Cc2c[nH]cn2)C(=O)N[C@@H](CCC(N)=O)C(=O)N[C@H](C(=O)N[C@@H](Cc2ccc(O)cc2)C(=O)N[C@@H](CCC(N)=O)C(=O)N[C@@H](Cc2ccccc2)C(=O)N[C@H](C(=O)N[C@@H](CC(=O)O)C(=O)N[C@@H](CCCCN)C(=O)N[C@@H](Cc2ccccc2)C(=O)N[C@@H](CCCCN)C(=O)N[C@@H](CC(=O)O)C(=O)N[C@@H](CC(N)=O)C(=O)N[C@H](C(=O)N[C@@H](C)C(=O)N2CCC[C@H]2C(=O)N[C@@H](CCCNC(=N)N)C(=O)N[C@@H](CO)C(=O)N[C@@H](CCCCN)C(=O)N[C@H](C(=O)N[C@@H](CO)C(=O)N2CCC[C@H]2C(=O)N[C@@H](CCC(N)=O)C(=O)N[C@H](C(=O)N2C[C@H](O)C[C@H]2C(N)=O)[C@@H](C)O)[C@@H](C)CC)C(C)C)[C@@H](C)O)[C@@H](C)CC)C(C)C)[C@@H](C)O)NC(=O)[C@H]([C@@H](C)O)NC(=O)CNC1=O [compound 147] (H-GCRIGTCTVQRLAHQIYQFTDKFKDNVAPRSKISPQT[Hyp]-NH2; disulfide 2-7; N-terminus assumed)
[1]
  Max ThT signal (%): 5.100%
hAMY3 receptor
  EC50: 0.04 nM

## CC[C@H](C)[C@H](NC(=O)[C@H](CCC(N)=O)NC(=O)[C@H](Cc1c[nH]cn1)NC(=O)[C@H](C)NC(=O)[C@H](CC(C)C)NC(=O)[C@H](CCCNC(=N)N)NC(=O)[C@H](CCC(N)=O)NC(=O)[C@@H](NC(=O)[C@@H](NC(=O)[C@@H]1CSSC[C@H](NC(=O)CN)C(=O)N[C@@H](CCCNC(=N)N)C(=O)N[C@@H](Cc2ccccc2)C(=O)NCC(=O)N[C@@H]([C@@H](C)O)C(=O)N1)[C@@H](C)O)C(C)C)C(=O)N[C@@H](Cc1ccc(O)cc1)C(=O)N[C@@H](CCC(N)=O)C(=O)N[C@@H](Cc1ccccc1)C(=O)N[C@H](C(=O)N[C@@H](CC(=O)O)C(=O)N[C@@H](CCCCN)C(=O)N[C@@H](CC(=O)O)C(=O)N[C@@H](CCCCN)C(=O)N[C@@H](CC(=O)O)C(=O)N[C@@H](CC(N)=O)C(=O)N[C@H](C(=O)N[C@@H](C)C(=O)N1CCC[C@H]1C(=O)N[C@@H](CCCNC(=N)N)C(=O)N[C@H](C(=O)N[C@@H](CC(N)=O)C(=O)N[C@H](C(=O)N[C@@H](CO)C(=O)N1CCC[C@H]1C(=O)N[C@@H](CC(N)=O)C(=O)NCC(=O)N[C@@H](Cc1ccc(O)cc1)C(N)=O)C(C)C)[C@@H](C)O)C(C)C)[C@@H](C)O [compound 98] (H-GCRFGTCTVQRLAHQIYQFTDKDKDNVAPRTNVSPNGY-NH2; disulfide 2-7; N-terminus assumed)
[1]
  Max ThT signal (%): 12.600%
hAMY3 receptor
  EC50: 0.017 nM
